Measurements reported in PubChem BioAssay AID434987 (Southern Research Specialized Biocontainment Screening …, 2010).
Calls of active or inactive are those of the source. No rule for the calls is given here.

Tested on: M. tuberculosis H37Rv growth inhibition with meropenem
Assay: dose response, H37Rv, with and without meropenem (AID 434987);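 also: growth over 7 days at 37 °C before Alamar Blue read on day 9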
[1] = M. tuberculosis H37Rv growth inhibition, measured here: IC50 without meropenem
[2] = M. tuberculosis H37Rv growth inhibition, measured here: IC90 without meropenem
[3] = measured here: IC90 with meropenem

Structure (SMILES) | IC50 | IC50 [1] [µM] | IC90 [2] [µM] | IC90 [3] [µM]
Cc1ccccc1OCC(=O)Nc1ccccc1N1CCOCC1 | 51.3 µM (inactive) | > 100 | > 100 | > 100
O=C(Nc1ccccc1)Nc1csc2ccccc12 | < 0.2 µM | 23.9 | > 100 | 20.9
CCOc1ccc(/C=N/NC(=O)c2ccccc2O)cc1CN1CC2CC(C1)c1cccc(=O)n1C2 (configuration not stated) | 79.8 µM (inactive) | 94.9 | > 100 | > 100
COC(=O)N1C(=O)[C@](Cc2ccccc2)(c2ccccc2)N1C(=O)OC | > 100 µM (inactive) | > 100 | > 100 | > 100
Cc1cc(C)nc(SCC(=O)Nc2ccccc2[N+](=O)[O-])n1 | 14.4 µM (inactive) | 27.9 | > 100 | > 100
COc1ccccc1NC(=O)COc1ccc(CO)cc1Cl | > 100 µM (inactive) | > 100 | > 100 | > 100
CCC(CC)c1nnc(NC(=O)c2cc(-c3ccccc3)nc3ccccc23)s1 | > 100 µM (inactive) | > 100 | > 100 | > 100
Cc1cc(C)c(C)c(S(=O)(=O)N2C(=S)NC(=O)C2CC(C)C)c1C (configuration not stated) | > 100 µM (inactive) | > 100 | > 100 | > 100
CC(=O)Nc1nonc1-c1nc2ccccc2n1CCC(C)C | > 100 µM (inactive) | > 100 | > 100 | > 100
Cc1ccc(C)c(CSc2nnc(C)c(=O)n2N)c1 | 5.73 µM | 14.1 | 39.5 | 20.4
Cc1oc(C(C)(C)C)cc1C(=O)Nc1ccc2c(c1)OCCO2 | > 100 µM (inactive) | > 100 | > 100 | > 100
COc1ccccc1NS(=O)(=O)c1cccc(N2CC(O)=C(c3ccccc3)C2=N)c1 | 8.71 µM (inactive) | 21.1 | > 100 | 16
C=CCn1cc(C(=O)NCCCOC)c(=O)c2cc(S(=O)(=O)N(CC)CC)ccc21 | 99.9 µM (inactive) | > 100 | > 100 | > 100
O=C1NC(=O)N(Cc2ccco2)C(=O)/C1=C\c1ccc(-c2ccc(F)cc2)o1 | 80.7 µM (inactive) | 84.5 | > 100 | > 100
O=C(CN1C(=O)c2cccc([N+](=O)[O-])c2C1=O)N1CCN(c2ccc(F)cc2)CC1 | 58.6 µM (inactive) | 91.4 | > 100 | 74.5
O=C(CSc1nnc(SCc2ccccc2)s1)N/N=C/c1ccc(Cl)cc1Cl | 72.2 µM (inactive) | > 100 | > 100 | > 100
N#Cc1c(-c2cccs2)cc(-c2ccccn2)nc1N | 6.92 µM | > 100 | > 100 | > 100
Cc1ccc(NC(=O)CSc2nnc([C@@H]3CCCN3C(=O)OC(C)(C)C)o2)c(C)c1 | 78.5 µM (inactive) | 86.5 | > 100 | > 100
O=C(CN1CCC(O)(c2ccc3c(c2)OCO3)CC1)OC1CCCCC1 | 12.8 µM | 38.5 | > 100 | 35.3
COc1ccc(OC)c(NC(=O)c2ccccc2SC)c1 | 19.8 µM | 83 | > 100 | > 100

Structure (SMILES) | IC50 | IC50 [1] [µM] | IC90 [2] [µM] | IC90 [3] [µM]
C#C[C@]1(O)CC[C@H]2[C@@H]3CCC4=C(CCC(=O)C4)[C@H]3CC[C@@]21C | > 100 µM (inactive) | > 100 | > 100 | > 100
Cc1cc(C=C2C(=O)NC(=S)NC2=O)c(C)n1-c1ccc2c(c1)OCO2 | 12.7 µM (inactive) | 24.3 | 25.3 | 14.5
COc1ccc(C(=O)Nc2nc3ccc(OC)cc3s2)cc1 | 21.2 µM | 65.1 | > 100 | > 100
C/C(=N\NC(=O)c1cccc(Cl)c1)c1cccc(NC(=O)C(C)C)c1 | > 100 µM (inactive) | > 100 | > 100 | > 100
O=C(OCC(=O)N1CCc2ccccc21)c1ccc(Cl)nc1 | 22.8 µM (inactive) | 44 | > 100 | > 100
CCOc1ccc2nc(SC3CC(=O)N(c4ccc(OC)cc4)C3=O)sc2c1 (configuration not stated) | > 100 µM (inactive) | > 100 | > 100 | > 100
COc1cc(C(=O)NNC(=O)c2cc(-c3ccccc3)n[nH]2)cc(OC)c1C | 19.7 µM | > 100 | > 100 | > 50
c1ccc(-c2noc(-c3cccc4ccccc34)n2)cc1 | 20.2 µM | > 100 | > 100 | > 100
O=C(/C=C/c1cccnc1)c1ccc(O)cc1 | 19.8 µM (inactive) | 34.2 | 46.9 | 50.4
Cc1ccc2occ(/C=C/C(=O)c3ccccc3O)c(=O)c2c1 | 50.2 µM (inactive) | > 100 | > 100 | > 100
O=C(COc1ccc2ccccc2c1)Nc1nc2ccccc2[nH]1 | 5.83 µM | 62 | > 100 | > 100
CCOC(=O)c1sc(NC(=O)CN2CCCC2)c(C(=O)OCC)c1C | > 100 µM (inactive) | > 100 | > 100 | > 100
Cc1[nH]n(-c2ccccc2)c(=O)c1/C=N/NC(=O)c1cccc([N+](=O)[O-])c1 | 5.43 µM | 34.2 | 55.1 | 70.7
COc1ccc(NC(=O)C(Cc2ccccc2)n2cccc2)c(OC)c1 (configuration not stated) | 13.6 µM | 47.5 | > 100 | > 100
CC(=O)c1ccc(NC(=S)Nc2ccc(N3CCOCC3)cc2)cc1 | 21.6 µM | > 100 | > 100 | > 100
COc1ccc(C(=O)Nc2ccccc2C(=O)NC(C(=O)NCc2ccco2)C(C)C)cc1 (configuration not stated) | > 100 µM (inactive) | > 100 | > 100 | > 100
CCOc1ccc(NC(=S)Nc2cccnc2)cc1 | 89.5 µM (inactive) | > 100 | > 100 | > 100
CC(=O)NC(=S)Nc1ccc(NC(=O)c2cccs2)cc1 | 48.7 µM (inactive) | > 100 | > 100 | > 100
O=S1(=O)CCO[C@H]2Cc3ccccc3[C@H]2N1Cc1ccccc1 | > 100 µM (inactive) | > 100 | > 100 | > 100
COC(=O)c1cnn(-c2ccccc2)c1/C=N/NC(=S)Nc1ccc(Cl)cc1 | 33.1 µM | > 100 | > 100 | > 100

Structure (SMILES) | IC50 | IC50 [1] [µM] | IC90 [2] [µM] | IC90 [3] [µM]
Cc1ccc(S(=O)(=O)NCCCCCC(=O)Nc2nccs2)cc1 | > 100 µM (inactive) | > 100 | > 100 | > 100
Cc1cccc(C)c1-n1c(C)cc(/C=C2\C(=O)NN(c3ccccc3)C2=O)c1C | > 100 µM (inactive) | > 100 | > 100 | > 100
CCCCCn1c(=O)c(C(=O)NCc2ccncc2)c(O)c2ccccc21 | 35.3 µM (inactive) | 81.4 | > 100 | > 100
COc1ccccc1N(C)S(=O)(=O)c1ccc(C(=O)OCC(=O)N2CCCCCC2)cc1 | > 50 µM (inactive) | > 100 | > 100 | > 50
Cc1ccc(C(C)C)c(OCc2ccc(C(=O)N/N=C/c3ccc(C(=O)O)cc3)cc2)c1 | 13.4 µM | 43.3 | 84.9 | 49.5
Cc1ccc2[nH]c(O)c(N=Nc3nc4ccccc4s3)c2c1 | 6.76 µM | > 100 | > 100 | > 100
Cc1cc2ccccn2c1C(=O)c1ccc([N+](=O)[O-])o1 | > 100 µM (inactive) | > 100 | > 100 | > 100
O=C(CCN1C(=O)/C(=C/c2ccccc2F)SC1=S)Nc1ccccn1 | > 100 µM (inactive) | > 100 | > 100 | > 100
Cc1cc(C)c(NC(=O)CC(C)(C)C)c(Cl)c1 | 76.4 µM (inactive) | > 100 | > 100 | > 100
CCOC(=O)/C(=N\Nc1ccccc1)c1csc(Nc2ccc(C)cc2)n1 | > 100 µM (inactive) | > 100 | > 100 | > 100
CCN(CC)C(=O)Cn1cc(C(=O)C(=O)N2CCN(c3ccccc3)CC2)c2ccccc21 | > 100 µM (inactive) | > 100 | > 100 | > 100
COC(=O)c1ccc(/C=N/NC(=O)c2cccc(F)c2)cc1 | > 100 µM (inactive) | > 100 | > 100 | > 100
CCOc1ccc2cc(S(=O)(=O)N3CCCCC3)ccc2c1 | > 100 µM (inactive) | > 100 | > 100 | > 100
CC1(C)CCN2CCC(C)(C)c3c(O)ccc1c32 | 34.7 µM (inactive) | 47.1 | 53 | 49.3
CSc1ccc(/C=C/C(=O)Nc2ccccc2)cc1 | > 100 µM (inactive) | > 100 | > 100 | > 100
O=C(COC(=O)Cc1ccc(S(=O)(=O)N2CCCCC2)s1)Nc1ccc2c(c1)OCO2 | 76.2 µM (inactive) | 68.8 | > 100 | > 100
COc1ccc2nc(SCC(=O)N3CCCCCC3)c(C#N)cc2c1 | > 50 µM (inactive) | > 100 | > 100 | > 50
COC(=O)Cn1nc(-c2ccccc2)c2ccccc21 | > 100 µM (inactive) | > 100 | > 100 | > 100
